Reference: ChEMBL document CHEMBL3400086, “Thieno[2,3-b]pyridines as negative allosteric modulators of metabotropic GluR5 receptors: Lead optimization” (Bioorg Med Chem Lett, 2015)
pIC50, pKi: −log10 of the molar value.

Key:
[1] = target: T1, Metabotropic glutamate receptor 5 (Rattus norvegicus, UniProt P31424); assay: Displacement of [3H]-M-MPEP from rat cerebrocortical mGluR5 receptor
[2] = target: T1, Metabotropic glutamate receptor 5; assay: Negative allosteric modulation of mGlu5 receptor in primary E17 rat embryo neuron assessed as ca2+ level by fluo-4/AM assay
Liver microsome [3] = assay: Intrinsic clearance in human liver microsomes measured per gram of tissue at 2.5 uM; type: ADME
Liver microsome [4] = assay: Intrinsic clearance in Wistar rat liver microsomes measured per gram of tissue at 2.5 uM; type: ADME

T1 sequence (P31424 whole entry): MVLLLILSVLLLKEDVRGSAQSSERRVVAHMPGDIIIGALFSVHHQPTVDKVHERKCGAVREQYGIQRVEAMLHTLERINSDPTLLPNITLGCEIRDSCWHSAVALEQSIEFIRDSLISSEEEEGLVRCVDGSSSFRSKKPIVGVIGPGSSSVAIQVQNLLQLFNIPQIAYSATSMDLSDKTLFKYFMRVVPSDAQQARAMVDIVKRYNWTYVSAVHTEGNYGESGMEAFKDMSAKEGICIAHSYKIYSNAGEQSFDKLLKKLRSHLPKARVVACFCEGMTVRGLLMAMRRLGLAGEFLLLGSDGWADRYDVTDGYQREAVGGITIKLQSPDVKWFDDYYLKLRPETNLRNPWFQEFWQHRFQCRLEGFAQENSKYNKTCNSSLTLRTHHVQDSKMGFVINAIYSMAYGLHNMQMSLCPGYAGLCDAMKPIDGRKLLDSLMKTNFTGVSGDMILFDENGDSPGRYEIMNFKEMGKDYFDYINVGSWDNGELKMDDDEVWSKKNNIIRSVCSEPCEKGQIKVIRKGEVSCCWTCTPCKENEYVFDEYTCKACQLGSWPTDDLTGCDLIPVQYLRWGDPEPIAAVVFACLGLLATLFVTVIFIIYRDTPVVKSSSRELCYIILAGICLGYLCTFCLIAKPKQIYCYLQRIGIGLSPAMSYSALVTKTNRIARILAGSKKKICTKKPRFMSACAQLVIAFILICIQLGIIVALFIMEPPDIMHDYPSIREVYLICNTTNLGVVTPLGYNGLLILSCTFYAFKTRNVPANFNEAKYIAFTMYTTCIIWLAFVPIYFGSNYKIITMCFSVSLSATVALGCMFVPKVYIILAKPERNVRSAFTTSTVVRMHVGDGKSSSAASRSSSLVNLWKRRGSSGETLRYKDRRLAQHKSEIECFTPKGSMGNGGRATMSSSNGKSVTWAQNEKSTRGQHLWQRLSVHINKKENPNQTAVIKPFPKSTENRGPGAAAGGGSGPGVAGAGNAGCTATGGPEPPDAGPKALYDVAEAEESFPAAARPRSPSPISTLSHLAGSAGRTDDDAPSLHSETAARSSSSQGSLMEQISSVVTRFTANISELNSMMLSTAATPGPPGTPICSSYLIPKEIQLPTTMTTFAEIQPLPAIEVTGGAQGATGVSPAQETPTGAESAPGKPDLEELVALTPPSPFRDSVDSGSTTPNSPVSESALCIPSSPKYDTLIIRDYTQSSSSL

SMILES	pKi [1]	pIC50 [2]	CLH (Liver microsome [3]) [mL/min/g]	CLH (Liver microsome [4]) [mL/min/g]
N#Cc1cc(F)cc(S(=O)(=O)c2sc3ncccc3c2-c2cccc(Cl)c2)c1	8.05	7.96	2.6	2
N#Cc1cccc(S(=O)(=O)c2sc3ncccc3c2-c2ccc(Cl)cc2)c1	8.39	7.52	2.4	12.8
N#Cc1cc(F)cc(S(=O)(=O)c2sc3ncc(N)cc3c2-c2ccncc2F)c1	7.36	7.36	0.3	0.5
N#Cc1cc(F)cc(S(=O)(=O)c2sc3ncc(N)cc3c2-c2ccc(F)c(F)c2)c1	8.57	8.05	0.9	1
N#Cc1cc(F)cc(S(=O)(=O)c2sc3ncc(N)cc3c2-c2ccccc2F)c1	8.82	8.80	1.1	2.5
N#Cc1cccc(S(=O)(=O)c2sc3ncccc3c2-c2cccc(Cl)c2)c1	7.84	7.35	2.6	10.8
Cc1cccc(-c2c(S(=O)(=O)c3cccc(C#N)c3)sc3ncccc23)c1	7.85	7.36	3.3	17.7
O=S(=O)(c1ccc(Cl)cc1)c1sc2nc(F)ccc2c1-c1ccc(Cl)cc1	7.59	6.76	0.1	3.8
Nc1cnc2sc(S(=O)(=O)c3ccc(Cl)cc3)c(-c3cccc(F)c3)c2c1	7.43	6.90	1.7	1.8
O=S(=O)(c1ccc(Cl)cc1)c1sc2nc(O)ccc2c1-c1ccc(Cl)cc1	7.22	6.47	0.04	0.9
N#Cc1cc(F)cc(S(=O)(=O)c2sc3ncccc3c2-c2cccc(F)c2)c1	8.66	8.62	1.5	2.4
O=S(=O)(c1ccc(Cl)cc1)c1sc2ncccc2c1-c1cccc(F)c1	7.42	6.91	2.3	4.1
Nc1ccc2c(-c3ccc(Cl)cc3)c(S(=O)(=O)c3ccc(Cl)cc3)sc2n1	7.08	6.43	0.01	0.5
N#Cc1cc(F)cc(S(=O)(=O)c2sc3nc(F)ccc3c2-c2ccc(F)cc2)c1	8.55	7.85	3.5	2
Cc1ccc(-c2c(S(=O)(=O)c3cccc(C#N)c3)sc3ncccc23)cc1	8.52		3.3	17.3
CS(=O)(=O)Nc1cnc2sc(S(=O)(=O)c3ccc(Cl)cc3)c(-c3ccc(Cl)cc3)c2c1	6.78		0.4	1.1
O=S(=O)(c1ccc(Cl)cc1)c1sc2ncccc2c1-c1ccc(F)cc1	7.66	7.04	3.4	13.6
N#Cc1cccc(S(=O)(=O)c2sc3nc(O)ccc3c2-c2ccc(Cl)cc2)c1	7.41	7.34	0.4	1.1
Nc1ccnc2sc(S(=O)(=O)c3ccc(Cl)cc3)c(-c3ccc(Cl)cc3)c12	7.83		2.9	10.1
N#Cc1cc(F)cc(S(=O)(=O)c2sc3ncccc3c2-c2ccc(F)cc2)c1	8.62	7.97	2.1	2.1
N#Cc1cc(F)cc(S(=O)(=O)c2sc3ncc(N)cc3c2-c2cnccc2Cl)c1	8.03	7.47	1.1	1
N#Cc1cc(F)cc(S(=O)(=O)c2sc3ncccc3c2-c2cnccc2Cl)c1	8.03	7.47	1.1	1
N#Cc1cc(F)cc(S(=O)(=O)c2sc3ncc(N)cc3c2-c2ccc(Cl)cc2)c1	8.66	7.52	1.3	1
N#Cc1cccc(S(=O)(=O)c2sc3ncccc3c2-c2ccccc2Cl)c1	8.46		3.2	11.2

SMILES	pKi [1]	pIC50 [2]	CLH (Liver microsome [3]) [mL/min/g]	CLH (Liver microsome [4]) [mL/min/g]
N#Cc1cc(F)cc(S(=O)(=O)c2sc3ncccc3c2-c2ccc(Cl)cc2)c1	8.70	7.74	1.4	3.4
N#Cc1cccc(-c2c(S(=O)(=O)c3cccc(C#N)c3)sc3ncccc23)c1	7.07	6.98	1.1	3.9
N#Cc1cc(F)cc(S(=O)(=O)c2sc3ncc(N)cc3c2-c2cccc(Cl)c2)c1		7.42	0.9	1.5
N#Cc1cccc(S(=O)(=O)c2sc3ncccc3c2-c2ccc(F)cc2)c1	8.35		2.1	9.6
O=S(=O)(c1ccc(Cl)cc1)c1sc2ncccc2c1-c1ccccc1F	7.29	6.87	2.4	4.1
N#Cc1cc(F)cc(S(=O)(=O)c2sc3ncc(N)cc3c2-c2cc(F)cc(F)c2)c1	8.62	8.21	0.8	1.04
COc1ccc(-c2c(S(=O)(=O)c3cccc(C#N)c3)sc3ncccc23)cc1	7.64		2.7	13.5
N#Cc1cccc(S(=O)(=O)c2sc3ncc(N)cc3c2-c2ccc(Cl)cc2)c1	8.05		1.6	0.4
N#Cc1cc(F)cc(S(=O)(=O)c2sc3nc(F)ccc3c2-c2cccc(F)c2)c1	8.60	8.31	0.6	2.9
N#Cc1cc(F)cc(S(=O)(=O)c2sc3ncccc3c2-c2ccccc2F)c1	8.96	8.82	2.4	3.5
O=S(=O)(c1ccc(Cl)cc1)c1sc2ncc(F)cc2c1-c1ccc(Cl)cc1	6.91		0.3	1.7
N#Cc1cccc(S(=O)(=O)c2sc3ncc(N)cc3c2-c2cccc(Cl)c2)c1	7.84		0.01	0.01
CN(C)c1ccnc2sc(S(=O)(=O)c3ccc(Cl)cc3)c(-c3ccc(Cl)cc3)c12	7.59		3.8	9.5
N#Cc1cc(F)cc(S(=O)(=O)c2sc3ncc(N)cc3c2-c2ccc(F)cc2)c1	8.55	8.19	0.8	1.2
N#Cc1cccc(S(=O)(=O)c2sc3nc(F)ccc3c2-c2ccc(Cl)cc2)c1	8.08	7.32	1	1.4
N#Cc1cccc(S(=O)(=O)c2sc3ncc(N)cc3c2-c2ccccc2F)c1	8.74		0.6	2.5
N#Cc1cc(F)cc(S(=O)(=O)c2sc3ncccc3c2-c2ccoc2)c1	7.89		3.7	4.3
N#Cc1cc(F)cc(S(=O)(=O)c2sc3ncccc3c2-c2cnccc2F)c1	7.87	7.66	0.9	1
N#Cc1cc(F)cc(S(=O)(=O)c2sc3ncc(N)cc3c2-c2c(F)cncc2F)c1	7.72		0.4	0.8
COc1ccc2c(-c3ccc(Cl)cc3)c(S(=O)(=O)c3ccc(Cl)cc3)sc2n1	6.19		0.01	2.6
O=S(=O)(c1ccc(Cl)cc1)c1sc2ncccc2c1-c1cnccc1F	7.21		2.6	10.5
O=S(=O)(c1ccc(Cl)cc1)c1sc2ncccc2c1-c1ccc(F)cc1F	7.57		3.3	11.1
N#Cc1cccc(S(=O)(=O)c2sc3ncc(N)cc3c2-c2cccc(F)c2)c1	8.38		0.01	0.01
